Measurements published in US7834217B2, “Method for producing oxidation product of cycloalkane” (Daicel Chemical Industries, Ltd., priority 2006, dated 2010).

Assay: Solubility in water at 25° C.
Type: physicochemical

With O=C1c2ccccc2C(=O)N1O [N-hydroxyphthalimide] the “solubility in water (25° C.)” value was at most 0.01 g/100 g-H2O.
